Tests used:
[1] = Particle size, PdI and zeta potential of mRNA-encapsulating LNPs by dynamic light scattering (Experimental Example 2); format: physicochemical
Experimental: An acidic buffer solution (total amount: 1080 µL) of nucleic acid was prepared by weighing 7.2 µg of mRNA solution (0.6 mg/mL) in a 5 mL tube and adding acidic malate buffer (20 mM, pH 3.0).
An acidic buffer solution of nucleic acid and an ethanol solution of lipid were each weighed in a syringe.
The particle size, PdI (Polydispersity Index), and zeta potential of the mRNA-encapsulating LNP prepared by the method of the above-mentioned 1 were measured by a dynamic light scattering method (Zetasizer Nano; Malvern).

liver [2] = assay: In vivo gene expression, luciferase luminescence in the liver after tail vein administration (Experimental Example 4); settings: BALB/c mouse, mRNA 0.05 mg/kg; for amount of luminescence (photons/sec) in liver: tail vein, 4.5 hr after administration, LNP cationic lipid:DOPC:Chol:DMG-PEG2k = 52.5:7.5:40:1.5, prepared as in Experimental Example 2; for relative amount of luminescence: liver luminescence relative to cationic lipid of Comparative Example
Experimental: LNP encapsulating mRNA that expresses luciferase (cationic lipid:DOPC:Chol:DMG-PEG2k = 52.5:7.5:40:1.5 (molar ratio)) was prepared by the method described in [Experimental Example 2], 1.
(§1) The prepared each mRNA-encapsulating LNP dispersion was administered from the tail vein of BALB/c mouse (male, 5-week-old). The dose of mRNA was set to 0.05 mg per 1 kg body weight of the mouse, and the dose of the mRNA-encapsulating LNP dispersion was set to 10 µL per 1 g body weight of the mouse. After 4.5 hr from the administration of the mRNA-encapsulating LNP dispersion, a PBS solution of D-luciferin potassium was administered into the abdominal cavity of the mouse. The dose of D-luciferin potassium was set to 3 mg per mouse, and the dose of the PBS solution of D-luciferin potassium was set to 200 µL per mouse. After 15 min from the administration of the PBS solution of D-luciferin potassium, the mouse was euthanized, and the liver was isolated. The luminescence in the liver was quantified using an in vivo imaging system (IVIS) with an exposure of 10 sec. The amount of luminescence in the liver was quantified by image analysis using Live Imaging software attached to IVIS. The amount of luminescence (photons/sec) was calculated from the acquired image and used as an index of gene expression activity. The cationic lipids used, the luminescence intensity in the liver, and the relative luminescence intensity (= luminescence intensity in the liver when cationic lipid of Example was used/luminescence intensity in the liver when cationic lipid of Comparative Example was used) are shown in Table 7-1 to Table 7-3. "E+0a" (a: integer) indicated in Table 7-1 to Table 7-3 means "10^a". For example, "3.94E+09" means "3.94×10^9". […]

[3] = Particle size, PdI and zeta potential of mRNA-encapsulating LNPs by dynamic light scattering (Experimental Example 6); format: physicochemical; settings: mRNA-encapsulating LNP; for zeta potential (mV): cationic lipid:DOPC:Chol=49:7.5:42.5:1, dispersion in TBS (Tables 8-1, 8-2); for PdI / particle size (nm): cationic lipid:DOPC:Chol=49:7.5:42.5:1, dispersion in TBS, dynamic light scattering (Tables 8-1, 8-2)
Experimental: An acidic buffer solution (total amount: 1300 µL) of nucleic acid was prepared by weighing 6.5 µg of mRNA solution (0.6 mg/mL) in a 5 mL tube and adding acidic citrate buffer (20 mM, pH 5.0).
An acidic buffer solution of nucleic acid and an ethanol solution of lipid were each weighed in a syringe. […] The obtained concentrate was diluted with TBS to a lipid concentration of 2 mM to give a dispersion containing LNP.
The particle size, PdI (Polydispersity Index), and zeta potential of the mRNA-encapsulating LNP prepared by the method of the above-mentioned 1 were measured by a dynamic light scattering method (Zetasizer Nano; Malvern). […]

mouse red blood cells [4] = assay: Hemolysis activity (membrane fusion ability) at pH 7.4 and 5.5 (Experimental Example 8); format: cell-based, ICR mice
Experimental: LNP encapsulating mRNA that expresses luciferase (cationic lipid:DOPC:Chol:DMG-PEG2k = 52.5:7.5:40:1.5 (molar ratio)) was prepared by the method described in […], 1. As cationic lipid, the cationic lipid of Comparative Example, compound 94, compound 112, compound 162, compound 181, or compound 194 was used.
(§2) The collected blood was immediately mixed with 1.0 µL of heparin solution (5000 U/5 mL). About 9 mL of PBS was added to the blood to make the total volume 10 mL. The mixture was then mixed by inversion and centrifuged (4°C, 400 g, 10 min). The supernatant containing plasma components was removed using a Pasteur pipette. About 9 mL of PBS was added to the blood cell components to make the total volume 10 mL, and the mixture was centrifuged again. A similar washing procedure was repeated 4 times to obtain mouse red blood cells.
(§3) 2, 4, 6, 8, and 10 µL of mouse red blood cells were weighed and diluted with PBS containing 1 w/v% Triton-X100. The entire diluted solution was transferred to a clear 96-well plate, and the absorbance at 545 nm was measured using a plate reader. A calibration curve was created using these samples, and the point where the absorbance reached 1 was determined as the amount of blood cells to be used in the hemolysis assay. Empty LNP solution was weighed into an Eppendorf tube and diluted with malic acid-PBS buffer (pH 5.5, pH 7.4), followed by addition of mouse red blood cells. The final lipid concentration was 100 µM at pH 7.4 and 33.3 µM at pH 5.5, and the final volume of the solution was 250 µL. Each tube was shaken at 1900 rpm for 15 min. Each sample was centrifuged under centrifugation conditions (4°C, 400 g, 5 min), and 100 µL of the supernatant was transferred to a clear 96-well plate and the absorbance at 545 nm was measured. Untreated red blood cells were used as the negative control. 1 w/v% Triton-X was used as the positive control. The hemolysis activity of each sample was calculated using the following formula: Hemolysis activity (%) = 100×(absorbance of each sample - absorbance of negative control)/(absorbance of positive control - absorbance of negative control).

[5] = Measurement of Liposomal pKa (TNS fluorescence, LNP without nucleic acid); settings: cationic lipid:DOPC:Chol = 52.5:7.5:40 (molar ratio) + DMG-PEG2k about 1.5 mol, pH at which the relative fluorescence intensity was 50%
Experimental: Lipid nano particles (LNP) without containing nucleic acid were used for the evaluation of Liposomal pKa.
To the obtained mixture was further added DMG-PEG2k (2 mM ethanol solution) in an amount of about 1.5 mol with respect to the total amount 100 mol of cationic lipid, DOPC, and Chol, and then ethanol was added to prepare an ethanol solution of the lipid (total amount: 360 µL).
An acidic malic acid buffer (20 mM, pH 3.0) (1080 µL) containing NaCl at a final concentration of 30 mM and an ethanol solution (360 µL) of lipid were each weighed in a syringe. Using an ultra high-speed nanomedicament producing apparatus NanoAssmblr (manufactured by Precision NanoSystems), LNP was prepared under the conditions of addition rate of acidic buffer solution: 3 mL/min, addition rate of ethanol solution of lipid: 1 mL/min, and syringe holder temperature: 25°C, and collected in a 15 mL tube. […]
20 mM Citrate buffer, sodium phosphate buffer, and tris HCl buffer, each containing NaCl at a final concentration of 150 mM and adjusted to various pHs within the range of pH 3.0 to 10.0, were prepared. […] The relative fluorescence intensity was calculated as a percentage, with the maximum value of the fluorescence intensity in each LNP being 100% and the minimum value being 0%.

liver [6] = assay: In vivo gene expression, luciferase luminescence in the liver after tail vein administration (Experimental Example 7); settings: BALB/c mouse, mRNA 0.05 mg/kg; for amount of luminescence (photons/sec) in liver: tail vein, 4.5 hr after administration, LNP cationic lipid:DOPC:Chol:DMG-PEG2k = 52.5:7.5:40:1.5, prepared as in Experimental Example 6; for relative amount of luminescence: liver luminescence relative to cationic lipid of Comparative Example
Experimental: LNP encapsulating mRNA that expresses luciferase (cationic lipid:DOPC:Chol:DMG-PEG2k = 52.5:7.5:40:1.5 (molar ratio)) was prepared by the method described in [Experimental Example 6], 1.
as §1, with “9.” for “7-1 to Table 7-3. "E+0a" (a: integer) indicated in Table 7-1 to Table 7-3 means "10^a".”

mouse red blood cells [7] = assay: Hemolysis activity (membrane fusion ability) at pH 7.4 and 5.5 (Experimental Example 5); format: cell-based, ICR mice
Experimental: LNPs encapsulating mRNA that expresses luciferase (cationic lipid:DOPC:Chol:DMG-PEG2k=52.5:7.5:40:1.5 (molar ratio)) were prepared using the method described in [Experimental Example 2] 1. As cationic lipid, the cationic lipid of Comparative Example, compound 9, compound 14, compound 27, compound 33, or compound 42 was used.
as §2
as §3, with “1 w/v% Triton-X was used as the positive control.” left out

HeLa cells = assay: In vitro gene expression in HeLa cells (luciferase mRNA-encapsulating LNP, cumulative luminescence in 24 hr)
Experimental: LNP encapsulating mRNA that expresses luciferase (cationic lipid:DOPC:Chol:DMG-PEG2k = 50:10:40:1 (molar ratio)) was prepared by the method described in [Experimental Example 2], 1.
HeLa cells, which are human cervical cancer cells, were seeded in a 3.5 cm dish at 5.0×10^4 cells/2 mL/Dish 24 hours before transfection. After 24 hr, the medium was changed to a culture medium (D-MEM) containing 0.1 mM D-luciferin. The prepared mRNA-encapsulating LNP was diluted with PBS to an mRNA concentration of about 1 µg/mL. The diluted mRNA-encapsulating LNP solution (about 200 µL, mRNA: 0.2 µg) was added to a 3.5 cm dish, and set in an incubator luminometer KronosDio. The luminescence intensity of luciferase was measured for 2 min every one hour. The cumulative luciferase luminescence intensity in 24 hr was calculated from the obtained time change of expression. […] In Comparative Example, the cationic lipid described in Table 2 was used.

[8] = mRNA-encapsulating LNP containing the cationic lipid, dispersion in PBS (Table 5-3)
[9] = mRNA-encapsulating LNP containing the cationic lipid, dispersion in PBS, dynamic light scattering (Table 5-3)
[10] = pH of the endosomal environment (5.5), final lipid concentration 33.3 µM, Fig. 4, versus LNP of Comparative Example
[11] = physiological pH (7.4), final lipid concentration 100 µM, Fig. 3

Liposomal pKa [5]	PdI ([1]; mRNA-encapsulating LNP, cationic lipid:DOPC:Chol = 50:10:40 (molar ratio) + DMG-PEG2k about 1 mol, Polydispersity Index, dynamic light scattering)	zeta potential (mV) ([1]; mRNA-encapsulating LNP, cationic lipid:DOPC:Chol = 50:10:40 (molar ratio) + DMG-PEG2k about 1 mol, Zetasizer Nano)	particle size (nm) ([1]; mRNA-encapsulating LNP, cationic lipid:DOPC:Chol = 50:10:40 (molar ratio) + DMG-PEG2k about 1 mol, dynamic light scattering)	Compound	zeta potential (mV) [1, 8] [mV]	PdI [1, 9]	particle size (nm) [1, 9] [nm]	amount of luminescence (photons/sec) in liver (liver [2]) [photons/sec]	relative amount of luminescence (liver [2])	zeta potential (mV) [3] [mV]	PdI [3]	particle size (nm) [3] [nm]	hemolysis activity (mouse red blood cells [4]; [10])	hemolysis activity (mouse red blood cells [4]; [11])	amount of luminescence (photons/sec) in liver (liver [6]) [photons/sec]	relative amount of luminescence (liver [6])	hemolysis activity (mouse red blood cells [7]; pH of the endosomal environment (5.5), final lipid concentration 33.3 µM, Fig. 2, versus LNP of Comparative Example)	hemolysis activity (mouse red blood cells [7]; physiological pH (7.4), final lipid concentration 100 µM, Fig. 1)	cumulative luciferase luminescence intensity (RLU) in 24 hr (HeLa cells; LNP cationic lipid:DOPC:Chol:DMG-PEG2k = 50:10:40:1, mRNA 0.2 µg per dish, E+0a means 10^a) [RLU]	relative luminescence intensity (HeLa cells; cumulative intensity in 24 hr relative to cationic lipid of Comparative Example)
–	–	–	–	CCCCCCCC/C=C\CCCCCCCC(=O)Oc1ccc(CC(=O)OCCC2CCN(CCSSCCN3CCC(CCOC(=O)Cc4ccc(OC(=O)CCCCCCCC(OC(=O)CC)C(CCCCCCCC)OC(=O)CC)cc4)CC3)CC2)cc1 (stereo not shown) [compound 94]	-2.40	0.048	88.0	9.40E+09	6.18	-4.45	0.121	119.7	superior hemolysis activity compared to the LNP containing the cationic lipid of Comparative Example	none	–	–	–	–	–	–
6.25	–	–	–	CCCCCCCC/C=C\CCCCCCCC(=O)O[C@H](C/C=C\CCCCCCCC(=O)Oc1ccc(CC(=O)OCCC2CCN(CCSSCCN3CCC(CCOC(=O)Cc4ccc(OC(=O)CCCCCCC/C=C\C[C@H](CCCCCC)OC(=O)CCCCCCC/C=C\CCCCCCCC)cc4)CC3)CC2)cc1)CCCCCC [compound 4]	–	–	–	–	–	–	–	–	–	–	–	–	–	–	–	–
–	–	–	–	CCCCCCCC(=O)OC(CC=CCCCCCCCC(=O)Oc1ccc(CC(=O)OCCC2CCN(CCSSCCN3CCC(CCOC(=O)Cc4ccc(OC(=O)CCCCCCCC=CCC(CCCCCC)OC(=O)CCCCC)cc4)CC3)CC2)cc1)CCCCCC (stereo not shown) [compound 162]	-5.04	0.041	91.2	4.43E+09	2.85	-3.44	0.079	126	superior hemolysis activity compared to the LNP containing the cationic lipid of Comparative Example	none	–	–	–	–	–	–
–	–	–	–	CCCCCCCC/C=C\CCCCCCCC(=O)Oc1ccc(CC(=O)OCCC2CCN(CCSSCCN3CCC(CCOC(=O)Cc4ccc(OC(=O)CCCCCCC/C=C\CC(CCCCCC)OC(=O)C(CC)CCCC)cc4)CC3)CC2)cc1 (stereo not shown) [compound 166]	-2.5	0.047	89.3	–	–	-2.99	0.09	130.5	–	–	8.49E+09	4.15	–	–	–	–
–	–	–	–	CCCCCCCC/C=C\CCCCCCCC(=O)Oc1ccc(CC(=O)OCCC2CCN(CCSSCCN3CCC(CCOC(=O)Cc4ccc(OC(=O)CCCC(=O)OC(CC(=O)OCCCC)(CC(=O)OCCCC)CC(=O)OCCCC)cc4)CC3)CC2)cc1 [compound 58]	-3.5	0.065	96.6	–	–	-4.2	0.071	90.0	–	–	1.72E+10	8.40	–	–	–	–
–	0.073	-2.80	92.18	CCCCCCCC/C=C\CCCCCCCC(=O)Oc1ccc(CC(=O)OCCC2CCN(CCSSCCN3CCC(CCOC(=O)Cc4ccc(OC(=O)CCCC(=O)OC[C@H](COC(=O)CCCCCC)OC(=O)CCCCCC)cc4)CC3)CC2)cc1 [compound 14]	–	–	–	6.12E+09	4.03	–	–	–	–	–	–	–	superior hemolysis activity compared to LNP containing the cationic lipid of Comparative Example	did not exhibit hemolysis activity	1.56E+08	8.44
